# According to USRE42890E1, “Furazanobenzimidazoles” (Basilea Pharmaceutica AG, priority 2003, dated 2011):
# Key:
# Jurkat [1] = test: MTS proliferation assay, Jurkat; assay type: cell-based, human; conditions: 72 h incubation, read-out: MTS proliferation assay IC 50 Jurkat
# Outline: (§1)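 Human lines, EGFP-transfected or not, grow in RPMI-1640 plus 5% or 10% FCS and 2-mercaptoethanol. They receive test compound for 72 h at final concentrations of 10, 3, 1 and 0.3 μM, and MTS conversion is measured at 492 nm.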
# Jily = test: MTS proliferation assay, Jily; assay type: cell-based; conditions: 72 h incubation, read-out: MTS proliferation assay IC 50 Jily
# Outline: (§2)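 Seed cells in complete RPMI-1640 medium and allow 24 h attachment. Add compounds to final 10 μM, 3 μM, 1 μM or 0.3 μM and incubate 72 h at 37° C. Add MTS, incubate 3 h more, then measure absorption at 492 nm.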
# HT1080 = test: MTS proliferation assay, HT1080; assay type: cell-based, human; conditions: HT1080, 72 h incubation; read-out: MTS proliferation assay IC 50 HT1080
# Outline: as §1
# HeLa [2] = test: MTS proliferation assay, HeLa; assay type: cell-based, human; conditions: 72 h incubation, read-out: MTS proliferation assay IC 50 HeLa
# Outline: as §1
# MRC5 = test: MTS proliferation assay, MRC5; assay type: cell-based; conditions: MRC5, 72 h incubation; read-out: MTS proliferation assay IC 50 MRC5
# Outline: as §2
# Jurkat [3] = test: PI staining for cell cycle distribution, Jurkat; assay type: cell-based, human; design: key: 0: no effect; 1: weak effect; 2: strong effect; conditions: Jurkat 3 μM, 24 h; for PI staining for cell cycle distribution, G2M: cell population arrested in G2M phase; for PI staining for cell cycle distribution, subG1: subG1 peak indicative for DNA fragmentation
# Protocol: (§3) Cell lines are cultured in RPMI-1640 tissue culture medium containing either 5% or 10% fetal calf serum, 0.05 mM 2-mercaptoethanol, 2 mM glutamine and penicillin/streptomycin 50 μg/ml (complete medium) (Sigma, Buchs, Switzerland). General growth conditions are 37° C. and 7.5% CO2.
# (§4) The following human cell lines (either EGFP transfected or not) are being used: HeLa (ATCC: CCL-2), KB (ATCC: CCL-17), MCF7 (ATCC: HTB-22), SK-BR-3 (ATCC: HTB-30), SK-Mel 1 (ATCC: HTB-67), SK-Mel 28 (ATCC: HTB-72), PC-3 (ATCC: CRL-1435), SW 480 (ATCC: CCL-228), NCl-H460 (ATCC: HTB-177), NCl-H1792 (ATCC: CRL-5895), HT1080 (ATCC: CCL-21), Jurkat (ATCC: TIB-152), Ramos (ATCC: CRL-1596), Raji (ATCC: CCL-86), H9 (ATCC: HTB-176), Hut78 (ATCC: TIB-161), K562 (ATCC: CCL 243), HL-60 (ATCC: CCL 240), U-87MG (ATCC: HTB-14), HepG2 (ATCC: HB-8065), U-2 OS (ATCC: HTB-96), Saos-2 (ATCC: HTB-85), U937 (ATCC: CRL 1593), Hs 578T (ATCC: HTB 126), HBL-100 (ATCC: HTB 124), Molt-4 (ATCC: CRL 1582).
# (§5) 1-2*10^5 cells are seeded into 24 well tissue culture plates and incubated for 24 h prior to compound addition. Compounds are added for 24 h in a final concentration of 3 μM or 10 μM. Adherent cells are harvested by trypsinization. The cell suspensions are fixed by adding 2 parts ice cold ethanol 100% while vortexing. Then the samples are stored for >2 h at −20° C. Subsequently the cells are washed with PBS once and resuspended in 250 μl PBS containing 50 μg/ml PI (Calbiochem # 537059), then the samples are incubated at 37° C. for 30 minutes and subsequently analyzed on a FACSCalibur™ monitoring linear PI fluorescence activity on FL2. The readout allows the detection of a possible direct or indirect influence of the tested compounds on the cell cycle. The following events can occur: a) Generation of a subG1 peak indicative for DNA fragmentation, b) increase of the cell population arrested in G2M phase. Both events are scored by 1 for weak and 2 for strong occurrence. 0 indicates no occurrence at all.
# HeLa [4] = test: PI staining for cell cycle distribution, HeLa; assay type: cell-based, human; design: key: 0: no effect; 1: weak effect; 2: strong effect; conditions: HeLa 10 μM, 24 h; for PI staining for cell cycle distribution, G2M: cell population arrested in G2M phase; for PI staining for cell cycle distribution, subG1: subG1 peak indicative for DNA fragmentation
# Protocol: as §3, §4, §5
# [5] = test system: adherent cells or suspension cells; test: Hoechst 33342 nuclear staining (fraction of apoptotic nuclei); assay type: cell-based; design: key: 0 relating to no activity; 1 relating to weak activity comprising less than 70% of the cells; score 2 relating to strong activity comprising more than 70% of the cells
IC50 (Jurkat [1]) [µM],IC50 (HeLa [2]) [µM],SMILES,IC50 (MRC5) [µM],"PI staining for cell cycle distribution, G2M (Jurkat [3])","PI staining for cell cycle distribution, subG1 (Jurkat [3])","PI staining for cell cycle distribution, G2M (HeLa [4])","PI staining for cell cycle distribution, subG1 (HeLa [4])","Hoechst 33342 nuclear staining score ([5]; H460, conc 0.01 μm)","Hoechst 33342 nuclear staining score ([5]; H460, conc 0.1 μm)","Hoechst 33342 nuclear staining score ([5]; H460, conc 1 μm)","Hoechst 33342 nuclear staining score ([5]; HeLa, conc 0.01 μm)","Hoechst 33342 nuclear staining score ([5]; HeLa, conc 0.1 μm)","Hoechst 33342 nuclear staining score ([5]; HeLa, conc 1 μm)","Hoechst 33342 nuclear staining score ([5]; Jily, conc 0.01 μm)","Hoechst 33342 nuclear staining score ([5]; Jily, conc 0.1 μm)","Hoechst 33342 nuclear staining score ([5]; Jily, conc 1 μm)","Hoechst 33342 nuclear staining score ([5]; Jurkat, conc 0.01 μm)","Hoechst 33342 nuclear staining score ([5]; Jurkat, conc 0.1 μm)","Hoechst 33342 nuclear staining score ([5]; Jurkat, conc 1 μm)","Hoechst 33342 nuclear staining score ([5]; MRC5, conc 0.01 μm)",other results
< 0.01,0.01 to 0.1,N#CCCNc1nonc1-c1nc2ccccc2n1CC(=O)c1ccc(N)cc1 [Example 58],< 0.01,0,0,2,0,2 (score 2 relating to strong activity comprising more than 70% of the cells),2 (score 2 relating to strong activity comprising more than 70% of the cells),2 (score 2 relating to strong activity comprising more than 70% of the cells),2 (score 2 relating to strong activity comprising more than 70% of the cells),2 (score 2 relating to strong activity comprising more than 70% of the cells),2 (score 2 relating to strong activity comprising more than 70% of the cells),2 (score 2 relating to strong activity comprising more than 70% of the cells),2 (score 2 relating to strong activity comprising more than 70% of the cells),2 (score 2 relating to strong activity comprising more than 70% of the cells),2 (score 2 relating to strong activity comprising more than 70% of the cells),2 (score 2 relating to strong activity comprising more than 70% of the cells),2 (score 2 relating to strong activity comprising more than 70% of the cells),1 (1 relating to weak activity comprising less than 70% of the cells),"IC50 (Jily): < 0.01 µM; IC50 (HT1080): < 0.01 µM; Hoechst 33342 nuclear staining score ([5]; MRC5, conc 0.1 μm): 2 (score 2 relating to strong activity comprising more than 70% of the cells); Hoechst 33342 nuclear staining score ([5]; MRC5, conc 1 μm): 2 (score 2 relating to strong activity comprising more than 70% of the cells); Hoechst 33342 nuclear staining score ([5]; PBLs, conc 0.01 μm): 0; Hoechst 33342 nuclear staining score ([5]; PBLs, conc 0.1 μm): 0; Hoechst 33342 nuclear staining score ([5]; PBLs, conc 1 μm): 0"
0.01 to 0.1,0.1 to 1,COc1ccc(C(=O)Cn2c(-c3nonc3N)nc3ccccc32)cc1 [Example 19],0.1 to 1,0,0,2,0,0,0,2 (score 2 relating to strong activity comprising more than 70% of the cells),0,1 (1 relating to weak activity comprising less than 70% of the cells),2 (score 2 relating to strong activity comprising more than 70% of the cells),0,2 (score 2 relating to strong activity comprising more than 70% of the cells),2 (score 2 relating to strong activity comprising more than 70% of the cells),0,2 (score 2 relating to strong activity comprising more than 70% of the cells),2 (score 2 relating to strong activity comprising more than 70% of the cells),0,"Hoechst 33342 nuclear staining score ([5]; MRC5, conc 0.1 μm): 0; Hoechst 33342 nuclear staining score ([5]; MRC5, conc 1 μm): 2 (score 2 relating to strong activity comprising more than 70% of the cells); Hoechst 33342 nuclear staining score ([5]; PBLs, conc 0.01 μm): 0; Hoechst 33342 nuclear staining score ([5]; PBLs, conc 0.1 μm): 0; Hoechst 33342 nuclear staining score ([5]; PBLs, conc 1 μm): 0"
0.01 to 0.1,0.01 to 0.1,Nc1nonc1-c1nc2ccccc2n1CC(=O)c1ccc(Br)cc1 [Example 29],0.01 to 0.1,0,0,2,0,0,0,2 (score 2 relating to strong activity comprising more than 70% of the cells),0,1 (1 relating to weak activity comprising less than 70% of the cells),2 (score 2 relating to strong activity comprising more than 70% of the cells),0,2 (score 2 relating to strong activity comprising more than 70% of the cells),2 (score 2 relating to strong activity comprising more than 70% of the cells),0,2 (score 2 relating to strong activity comprising more than 70% of the cells),2 (score 2 relating to strong activity comprising more than 70% of the cells),0,"Hoechst 33342 nuclear staining score ([5]; MRC5, conc 0.1 μm): 2 (score 2 relating to strong activity comprising more than 70% of the cells); Hoechst 33342 nuclear staining score ([5]; MRC5, conc 1 μm): 2 (score 2 relating to strong activity comprising more than 70% of the cells); Hoechst 33342 nuclear staining score ([5]; PBLs, conc 0.01 μm): 0; Hoechst 33342 nuclear staining score ([5]; PBLs, conc 0.1 μm): 0; Hoechst 33342 nuclear staining score ([5]; PBLs, conc 1 μm): 0"
0.1 to 1,0.1 to 1,CON=C(Cn1c(-c2nonc2N)nc2ccccc21)c1ccc(Br)cc1 (mixture of isomers) [Example 30],0.1 to 1,0,0,2,0,0,0,0,0,0,1 (1 relating to weak activity comprising less than 70% of the cells),0,0,1 (1 relating to weak activity comprising less than 70% of the cells),0,0,2 (score 2 relating to strong activity comprising more than 70% of the cells),0,"Hoechst 33342 nuclear staining score ([5]; MRC5, conc 0.1 μm): 0; Hoechst 33342 nuclear staining score ([5]; MRC5, conc 1 μm): 2 (score 2 relating to strong activity comprising more than 70% of the cells); Hoechst 33342 nuclear staining score ([5]; PBLs, conc 0.01 μm): 0; Hoechst 33342 nuclear staining score ([5]; PBLs, conc 0.1 μm): 0; Hoechst 33342 nuclear staining score ([5]; PBLs, conc 1 μm): 0"
